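Compound exposure: 48 hours, 5 concentrations, 96-well plates. Here, GI50 denotes the concentration required for 50% inhibition of growth. TGI denotes the concentration required for complete inhibition of growth.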
Tests used:
Assay in all cases: DTP human tumour cell line panel, 48 h
[1] = tested on: A549 NSCLC
[2] = tested on: MCF7 breast
[3] = tested on: NCI-H226 lung
[4] = tested on: SF-268 CNS
[5] = tested on: U251 CNS
[6] = tested on: SF-295 CNS
[7] = tested on: SK-OV-3 ovarian
[8] = tested on: SF-539 CNS

Compound `c1ccc(CCN2CCc3[nH]c4ccccc4c3C2)cc1` has a TGI [1] of 62.3 µM, a TGI [2] of 40.9 µM and a TGI [3] of 71.4 µM. For the same compound, the TGI [4] was greater than 100 µM, the TGI [5] was 31.9 µM and the TGI [6] was 35.2 µM. The TGI [7] was greater than 100 µM and the TGI [8] was 40 µM.
`CCOC(=O)C(NC(=O)N(C1=NCC(C)S1)C1CCCCC1)(OC)C(F)(F)F` (stereo not drawn) showed a TGI [1] greater than 100 µM, a TGI [2] of 62.2 µM and a TGI [3] of 47.5 µM. The TGI [4] was greater than 100 µM, the TGI [5] was 53.6 µM and the TGI [6] was greater than 100 µM. The TGI [7] was greater than 100 µM and the TGI [8] was 93.1 µM.
`COc1nc2c(c(=O)n1C)N[C@H]1[C@H](OC(C)=O)[C@@H](OC(C)=O)CO[C@H]1N2` showed a TGI [1] greater than 100 µM, a TGI [2] greater than 100 µM and a TGI [3] greater than 100 µM. The TGI [4] was greater than 100 µM, the TGI [5] was greater than 100 µM and the TGI [6] was greater than 100 µM. It also gave a TGI [7] greater than 100 µM and a TGI [8] greater than 100 µM.
With `c1ccc(CCNCc2ccco2)nc1` the TGI [1] was greater than 100 µM, the TGI [2] was greater than 100 µM and the TGI [3] was greater than 100 µM. It also gave a TGI [4] greater than 100 µM, a TGI [5] greater than 100 µM and a TGI [6] greater than 100 µM. The TGI [7] was greater than 100 µM and the TGI [8] was greater than 100 µM.
Compound `C=C(CCC(C)C1CCC2C3=C(C(=O)CC21C)C1(C)CCC(=O)[C@@H](C)C1CC3=O)C(C)C(=O)O` (stereo partly drawn) has a TGI [1] greater than 100 µM, a TGI [2] greater than 100 µM and a TGI [3] greater than 100 µM. The TGI [4] was greater than 100 µM, the TGI [5] was greater than 100 µM and the TGI [6] was greater than 100 µM. For the same compound, the TGI [7] was 5.46 µM and the TGI [8] was greater than 100 µM.
In the case of `Nc1nc(-c2ccccc2N=NN2CCCC2)nc2ccccc12`, the TGI [1] is reported as 10.5 µM, the TGI [2] is reported as 55.9 µM and the TGI [3] is reported as 12.2 µM. For the same compound, the TGI [4] was 21.5 µM, the TGI [5] was 8.91 µM and the TGI [6] was 10.5 µM. The TGI [7] was 21.4 µM and the TGI [8] was 5 µM.
Work on `Cc1ccncc1.F[B-](F)(F)F.[Pt+2].c1ccc(-c2cccc(-c3ccccn3)n2)nc1` yielded a TGI [1] greater than 75.7 µM, a TGI [2] of 25.7 µM and a GI50 [3] of 0.618 µM. For the same compound, the TGI [3] was 5.36 µM, the TGI [4] was greater than 60 µM and the TGI [5] was greater than 100 µM. The TGI [6] was 7.74 µM, the TGI [7] was 17.6 µM and the TGI [8] was 15.1 µM.
`O=C1CCC2(CCO1)OCCO2` was tested, and the TGI [1] was greater than 100 µM, the TGI [2] was greater than 100 µM and the TGI [3] was greater than 100 µM. It also gave a TGI [4] greater than 100 µM, a TGI [5] greater than 100 µM and a TGI [6] greater than 100 µM. It also gave a TGI [7] greater than 100 µM and a TGI [8] greater than 100 µM.
For `O=CC(O)C(O)C(O)C(O)C(=O)NCCCCCCCCCCCCNC(=O)C(O)C(O)C(O)C(O)C=O` (stereo not drawn), the TGI [1] was greater than 100 µM, the TGI [2] was greater than 100 µM and the TGI [3] was greater than 100 µM. For the same compound, the TGI [4] was greater than 100 µM, the TGI [5] was greater than 100 µM and the TGI [6] was greater than 100 µM. For the same compound, the TGI [7] was greater than 100 µM and the TGI [8] was greater than 100 µM.
`C(=C\c1cccc(/C=C/c2ccccn2)n1)/c1ccccn1` showed a TGI [1] greater than 100 µM, a TGI [2] greater than 100 µM and a TGI [3] greater than 100 µM. For the same compound, the TGI [4] was 37.2 µM, the TGI [5] was greater than 100 µM and the TGI [6] was greater than 100 µM. The TGI [7] was greater than 100 µM and the TGI [8] was greater than 100 µM.
Work on `CCc1c(Cc2cccc3ccccc23)n2c(nc1=O)SCC2OCCO` (stereo not drawn) yielded a TGI [1] greater than 100 µM, a TGI [2] greater than 100 µM and a TGI [3] greater than 100 µM. It also gave a TGI [4] greater than 100 µM, a TGI [5] greater than 100 µM and a TGI [8] greater than 100 µM.
`CN1CCN(c2c(Cl)cc(Cl)c3[nH]c4ccccc4c(=O)c23)CC1` showed a TGI [1] of 32.9 µM, a TGI [2] of 15.8 µM and a TGI [3] of 23 µM. It also gave a TGI [4] of 20.2 µM, a TGI [5] of 19.7 µM and a TGI [6] of 20.3 µM. For the same compound, the TGI [7] was 24.3 µM and the TGI [8] was 15.3 µM.
For `Clc1ccc(N2N=C(c3cccc(Nc4ccncc4)c3)CC2c2ccc3c(c2)OCO3)cc1` (stereo not drawn), the GI50 [3] was 7.28 µM, the TGI [3] was 33.1 µM and the GI50 [4] was 1630 nM. It also gave a TGI [4] of 3.32 µM, a GI50 [6] of 1790 nM and a TGI [6] of 3.29 µM. The GI50 [7] was 4.31 µM, the TGI [7] was 24.1 µM and the GI50 [8] was 1790 nM. For the same compound, the TGI [8] was 3.38 µM.
With `CCCCc1cc2c(C)cc(=O)oc2c(O)c1O` the TGI [1] was greater than 100 µM, the TGI [2] was 45.7 µM and the TGI [3] was 67.9 µM. The TGI [4] was greater than 100 µM, the TGI [5] was 56.1 µM and the TGI [6] was 67.3 µM. For the same compound, the TGI [8] was 47.4 µM.
Compound `COC1OC(Cc2nnc(C)o2)C(OCc2ccccc2)C(OCc2ccccc2)C1OCc1ccccc1` (stereo not drawn) has a TGI [1] greater than 100 µM, a TGI [2] of 49.7 µM and a TGI [3] of 95.6 µM. It also gave a TGI [4] of 46.3 µM, a TGI [5] greater than 100 µM and a TGI [6] of 52.6 µM. The TGI [7] was greater than 100 µM and the TGI [8] was greater than 100 µM.
`O=C(CSCC(=O)N/N=C/c1cccs1)N/N=C/c1cccs1` showed a TGI [1] greater than 100 µM, a TGI [2] greater than 100 µM and a TGI [3] greater than 100 µM. For the same compound, the TGI [4] was greater than 100 µM, the TGI [5] was greater than 100 µM and the TGI [6] was greater than 100 µM. For the same compound, the TGI [7] was greater than 100 µM and the TGI [8] was greater than 100 µM.
Compound `CC(=O)/C(=C/n1c(=S)[nH]c2ccccc21)C(=O)Nc1ccccc1C` has a TGI [1] greater than 100 µM, a TGI [3] greater than 100 µM and a TGI [4] greater than 100 µM. For the same compound, the TGI [5] was greater than 100 µM, the TGI [6] was greater than 100 µM and the TGI [7] was greater than 100 µM. It also gave a TGI [8] greater than 100 µM.
Compound `CC[N+](C)(CC)CCC(O)(c1ccccc1)c1ccccc1` has a TGI [1] greater than 100 µM, a TGI [2] greater than 100 µM and a TGI [3] greater than 100 µM. The TGI [4] was greater than 100 µM, the TGI [5] was greater than 100 µM and the TGI [6] was greater than 100 µM. For the same compound, the TGI [7] was greater than 100 µM.
With `COc1cc2nc(-c3ccc4ccccc4c3)[nH]c(=O)c2cc1OC` the TGI [1] was greater than 100 µM, the TGI [2] was greater than 100 µM and the TGI [3] was greater than 100 µM. For the same compound, the TGI [4] was greater than 100 µM, the TGI [6] was greater than 100 µM and the TGI [7] was greater than 100 µM.
`CN(C)c1nc(N(C)C)nc(N(C)C23CC4CC(CC(C4)C2)C3)n1` showed a TGI [1] greater than 100 µM, a TGI [2] greater than 100 µM and a TGI [3] greater than 100 µM. For the same compound, the TGI [4] was greater than 100 µM, the TGI [5] was greater than 100 µM and the TGI [6] was greater than 100 µM. It also gave a TGI [7] greater than 100 µM and a TGI [8] greater than 100 µM.
Compound `Cc1nc2c3c(ncn2n1)Oc1c(c(-c2ccccc2)nn1-c1ccccc1)C3c1ccc(Cl)cc1` (stereo not drawn) has a TGI [1] greater than 100 µM, a TGI [2] greater than 100 µM and a TGI [3] greater than 100 µM. For the same compound, the TGI [4] was greater than 100 µM, the TGI [5] was greater than 100 µM and the TGI [6] was greater than 100 µM. The TGI [7] was greater than 100 µM and the TGI [8] was 97.1 µM.
`Cc1ccc(S(=O)(=O)NNC(=O)c2cc(C)ccc2NC(=O)C23CC4CC(CC(C4)C2)C3)cc1` gave a TGI [1] greater than 100 µM, a TGI [2] greater than 100 µM and a TGI [3] greater than 100 µM. The TGI [4] was greater than 100 µM, the TGI [5] was greater than 100 µM and the TGI [6] was greater than 100 µM. For the same compound, the TGI [7] was 68.5 µM and the TGI [8] was greater than 100 µM.
In the case of `Nc1ncnc2c1ncn2C1CCC(COS(N)(=O)=O)C1` (stereo not drawn), the TGI [1] is reported as greater than 100 µM, the TGI [2] is reported as greater than 100 µM and the TGI [3] is reported as greater than 100 µM. The TGI [4] was greater than 100 µM, the TGI [5] was greater than 100 µM and the TGI [6] was greater than 100 µM. It also gave a TGI [7] greater than 100 µM and a TGI [8] greater than 100 µM.
Compound `O=[N+]([O-])c1ccc(S[C@@H]2[C@H]3c4c(-c5ccccc5)[nH]c(-c5ccccc5)c4[C@@H]2C[C@H]3Cl)cc1` has a TGI [1] greater than 100 µM, a TGI [2] of 16.5 µM and a TGI [3] greater than 100 µM. It also gave a TGI [4] of 25.7 µM, a TGI [5] greater than 100 µM and a TGI [6] greater than 100 µM. For the same compound, the TGI [7] was greater than 100 µM and the TGI [8] was greater than 100 µM.

Reference: PubChem BioAssay (NCI)
